Experiments:
[1] = Safety and tolerability of IN nalmefene, adverse events (Example 13); format: in vivo, human (healthy volunteers)
Description: Safety: The Investigator evaluated safety using the following assessments: reported or observed AEs, clinical laboratory evaluations, vital sign measurements, physical examinations, ECGs (including telemetry), nasal irritation determined from nasal passage examinations, and NRS to determine acute nasal pain.

[2] = Phase 1 pharmacokinetic evaluation of nalmefene IN with and without Intravail vs IM injection
[3] = Treatment B (6 mg, 1 spray in each nostril)
[4] = Treatment C (6 mg, 2 sprays in 1 nostril)

C=C1CC[C@@]2(O)[C@H]3Cc4ccc(O)c5c4[C@@]2(CCN3CC2CC2)[C@H]1O5 [Nalmefene, 17-cyclopropylmethyl-4,5α-epoxy-6-methylenemorphinan-3,14-diol]
Tolerability ([1]; 3 mg and 6 mg dose, fasted healthy subjects): well-tolerated
Nasal congestion, instances ([1]; Treatment A): 1
Nasal discomfort, instances ([1]; Treatment A): 1
Nausea, instances ([1]; Treatment A): 1
Number of AEs reported ([1]; Treatment A (3 mg)): 20
Subjects reporting AEs ([1]; Treatment A (3 mg)): 43.5%
Nasal congestion, instances ([1]; Treatment B): 2
Nausea, instances ([1]; Treatment B): 5
Number of AEs reported [1, 3]: 24
Subjects reporting AEs [1, 3]: 60.9%
Nasal congestion, instances ([1]; Treatment C): 4
Nasal discomfort, instances ([1]; Treatment C): 3
Nausea, instances ([1]; Treatment C): 1
Number of AEs reported [1, 4]: 24
Subjects reporting AEs [1, 4]: 58.3%
Serious AEs or AEs leading to withdrawal or death ([1]; all treatments): no serious AEs
Severity of TEAEs ([1]; all treatments): mild
AUCextrap, mean ([2]; 1.5 mg IM): 22.6%
Cmax/D, mean ([2]; 1.5 mg IM): 1.12 ng/mL/mg
Lambda z, mean ([2]; 1.5 mg IM): 0.094 h⁻¹
AUCextrap, mean ([2]; 1.5 mg IN): 30.6%
Cmax/D, mean ([2]; 1.5 mg IN): 0.646 ng/mL/mg
Half-life, mean ([2]; 1.5 mg IN): 6.74 h
Lambda z, mean ([2]; 1.5 mg IN): 0.131 h⁻¹
AUCextrap, mean ([2]; 3 mg IN): 17.9%
Cmax/D, mean ([2]; 3 mg IN): 0.731 ng/mL/mg
Lambda z, mean ([2]; 3 mg IN): 0.101 h⁻¹
AUCextrap, mean ([2]; 3 mg plus […] Intravail IN): 14.6%
Cmax/D, mean ([2]; 3 mg plus […] Intravail IN): 1.65 ng/mL/mg
Lambda z, mean ([2]; 3 mg plus […] Intravail IN): 0.117 h⁻¹
concentration at 0 h ([2]; human, in vivo, 1.5 mg): 0 ng/mL
concentration at 0.04 h ([2]; human, in vivo, 1.5 mg): 0 ng/mL
concentration at 0.08 h ([2]; human, in vivo, 1.5 mg): 0 ng/mL
concentration at 30 h ([2]; human, in vivo, 1.5 mg): 0 ng/mL
concentration at 36 h ([2]; human, in vivo, 1.5 mg): 0 ng/mL
concentration at 48 h ([2]; human, in vivo, 1.5 mg): 0 ng/mL
concentration at 60 h ([2]; human, in vivo, 1.5 mg): 0 ng/mL
concentration at 72 h ([2]; human, in vivo, 1.5 mg): 0 ng/mL
concentration at 0 h ([2]; human, in vivo, 3 mg): 0 ng/mL
concentration at 0.04 h ([2]; human, in vivo, 3 mg): 0 ng/mL
concentration at 0.08 h ([2]; human, in vivo, 3 mg): 0 ng/mL
concentration at 48 h ([2]; human, in vivo, 3 mg): 0 ng/mL
concentration at 60 h ([2]; human, in vivo, 3 mg): 0 ng/mL
concentration at 72 h ([2]; human, in vivo, 3 mg): 0 ng/mL

Reference: patent US12290596B2, “Compositions and methods for the treatment of opioid overdose” (priority 2021, dated 2025)
